Tests used:
[1] = tested on: SNP0001 (flexneri 2a, parent 2457T); assay: antibiotic sensitivity of mSBA target strain SNP0001; format: cell-based, Shigella flexneri; conditions: strain SNP0001 (flexneri 2a)
Source text: (§1) Strains 2457T (S. flexneri 2a) and SNP0006 (S. flexneri 6) were made resistant to streptomycin and nalidixic acid, respectively, by natural selection as previously described (Burton, R. L. and M. H. Nahm, “Development and validation of a fourfold multiplexed opsonization assay (MOPA4) for pneumococcal antibodies”, Clin Vaccine Immunol, 2006. 13(9): p. 1004-9). Strain J17B (S. flexneri 3a) was made kanamycin resistant by transduction with a nadC:kan fusion gene with P1 phage (Prunier, A. L., et al., “Genetic structure of the nadA and nadB antivirulence loci in Shigella spp.”, J Bacteriol, 2007. 189(17): p. 6482-6), which was obtained from a S. flexneri 2a strain (BS655) (personal communication with Dr. C. Turnbough at UAB).
(§2) To prepare working stocks for the target strains, primary stocks were streaked onto blood agar plates and incubated at 37° C./5% CO2. After overnight culture, multiple colonies were transferred to liquid culture medium (Todd-Hewitt broth with 0.5% yeast extract) and grown at 37° C. until cultures reached an OD600 of 0.5-1.4. After reaching the desired OD, glycerol was added to a final concentration of 16%, and 0.5-ml aliquots were prepared and stored at ≤−60° C. until needed. Each WS was tested to confirm the antibiotic sensitivity/resistance profile and to determine the optimal dilution of bacteria to use for the assay.
(§3) All target strains were tested individually in assay conditions for growth on plates containing antibiotics.

[2] = tested on: SNP0004 (flexneri 3a, parent J17B); assay: antibiotic sensitivity of mSBA target strain SNP0004; format: cell-based, Shigella flexneri; conditions: strain SNP0004 (flexneri 3a)
Source text: as §1, §2, §3

S. sonnei strain Moseley = format: cell-based, Shigella sonnei; conditions: for Antibiotic Sensitivity: strain Moseley (sonnei); for antibiotic resistance screening: strain Moseley, natural resistance
Source text: as §1, §2, §3

[3] = tested on: SNP0006 (flexneri 6, parent CCH060); assay: antibiotic sensitivity of mSBA target strain SNP0006; format: cell-based, Shigella flexneri; conditions: strain SNP0006 (flexneri 6)
Source text: as §1, §2, §3

| Compound | Antibiotic Sensitivity [1] | Antibiotic Sensitivity [2] | Antibiotic Sensitivity (S. sonnei strain Moseley) | antibiotic resistance screening (S. sonnei strain Moseley) | Antibiotic Sensitivity [3] |
| --- | --- | --- | --- | --- | --- |
| C[C@H]1c2cccc(O)c2C(O)=C2C(=O)[C@]3(O)C(O)=C(C(N)=O)C(=O)[C@@H](N(C)C)[C@@H]3[C@@H](O)[C@@H]21 [Dox, doxycycline] | S | S | R | naturally resistant | S |
| NC[C@H]1O[C@H](O[C@H]2[C@H](O)[C@@H](O[C@H]3O[C@H](CO)[C@@H](O)[C@H](N)[C@H]3O)[C@H](N)C[C@@H]2N)[C@H](O)[C@@H](O)[C@@H]1O [Kan, kanamycin] | S | R | S |  | S |
| CCn1cc(C(=O)O)c(=O)c2ccc(C)nc21 [NA, nalidixic acid] | S | S | S | sensitive | R |
| [H]/N=C(/N)N[C@H]1[C@H](O)[C@@H](O)[C@H](O[C@@H]2O[C@@H](C)[C@](O)(C=O)[C@H]2O[C@@H]2O[C@@H](CO)[C@H](O)[C@@H](O)[C@@H]2NC)[C@@H](N/C(N)=N\[H])[C@@H]1O [Strep, streptomycin] | R | S | S | sensitive | S |

Source: patent publication US20250327110A1, “HIGH THROUGHPUT MULTIPLEXED SERUM BASED BACTERICIDAL ASSAYS (SBAs), AND KITS FOR USE THEREIN” (priority 2024, published 2025)
